{
  "source": "patent US12643913B2",
  "about": "“Mcl-1 inhibitor formulations” (AMGEN INC., priority 2020, dated 2026)",
  "key": {"[1]": {"experiment": "Pharmacokinetics after oral gavage to male beagle dogs with different pre-treatments (Amgen study 150528)", "type": "in vivo", "settings": "3 mg/kg PO; for AUCt / Cl/F / Cmax / Tmax / T½: male beagle dogs", "description": "The pharmacokinetics of AMG 397 were assessed following oral administration to male beagle dogs as either a suspension of the crystalline hydrate form of AMG 397 or an amorphous suspension in 2% HPMC, 0.01% Tween 80. The full protocol is described in Amgen study number 150528. The goal of this study was to determine if the amorphous material would lead to increases in bioavailability and if variability in dosing could be reduced. In addition, oncology patients could be receiving acid-reducing agents as co-medication, so it is important to determine if exposure is reduced with elevated stomach pH and if an amorphous formulation of AMG 397 could overcome the drug-drug interaction (DDI). For the studies below, Form 1 is the crystalline hydrate form of AMG 397 and amorphous is the amorphous form of AMG 397.\nBriefly, during each phase five male beagle dogs were assigned to each group of the study. All animals were fasted for at least eight hours prior to dosing and through the first four hours of blood sample collection for each phase. Food was returned within 30 minutes following collection of the last blood sample at the four-hour collection interval. Each animal in Phase 1, received a single oral (PO) gavage dose of the appropriate test article formulation as outlined in the study design Table 6. Oral gavage dosing formulations were continuously stirred throughout dosing. The gavage tube was rinsed with approximately 10 mL of tap water following dosing (prior to removal of the gavage tube). Following each study phase a 7-day washout period was allowed prior to the dosing of the next phase. The same five dogs were assigned to either group 1 or group 2 formulations for the duration of the study.\nTest Article Administration: A total of 10 male beagle dogs were initially assigned to study. All animals were fasted for at least eight hours prior to dosing and through the first four hours of blood sample collection for each phase, where applicable (food will be returned within 30 minutes following collection of the last blood sample at the four hour collection interval, where applicable). Total fasting time […] 24 hours.\n(§1) Each animal in Phase 1, Groups 1 and 2 received a single oral (PO) gavage dose of the appropriate test article formulation as outlined in the following study design table. Oral gavage dosing formulations was continuously stirred throughout dosing. The gavage tube was rinsed with approximately 10 mL of tap water following dosing (prior to removal of the gavage tube). No pre-treatment will be required for Phase 1.\nas §1, with “After a 7-day washout period, each” for “Each”, “2,” for “1,”, “land” for “1 and”, “were” for “was”, “Two hours prior to dosing, each animal received two 20 mg (40 mg total) oral tablets of famotidine followed by a 10 mL dose of deionized water.” for “No pre-treatment will be required for Phase 1.”\nAfter another 7-day washout period, each animal in Phase 3, Groups land 2 received a single oral (PO) gavage dose of the appropriate test article formulation as outlined in the following study design table. Oral gavage dosing formulations were continuously stirred throughout dosing. The gavage tube was rinsed with approximately 10 mL of tap water following dosing (prior to removal of the gavage tube). Thirty minutes prior to dosing, each animal received an intramuscular dose of pentagastrin in phosphate buffered saline at a dose level of 0.006 mg/kg and a dose volume of 0.05 mL/kg.\nAfter a final 7-day washout period, each animal in Phase 4, Groups 1 and 2 received a single oral (PO) gavage dose of the appropriate test article formulation as outlined in the following study design table. Oral gavage dosing formulations were continuously stirred throughout dosing. […]"}, "[2]": {"experiment": "Moisture sorption profile (DVS)", "type": "physicochemical", "settings": "by 95% RH; listed as amorphous AMG 397", "description": "Moisture Sorption: Moisture sorption data was collected using a Surface Measurement Systems DVSAdvantage instrument. Equilibrium criteria were set at ±0.001% weight change in 10 minutes with a maximum equilibrium time of 380 minutes.\nMoisture Sorption: Moisture sorption data was collected using a Surface Measurement Systems DVSAdvantage instrument. Equilibrium criteria were set at ±0.001% weight change in 10 minutes with a maximum equilibrium time of 360 minutes."}, "[3]": {"experiment": "2-stage micro-dissolution (faSSGF then faSSIF), amorphous vs crystalline hydrate", "type": "physicochemical", "description": "A 2-stage micro-dissolution experiment was performed to compare the dissolution of the amorphous AMG 397 drug substance to the crystalline hydrate form of AMG 397, as shown in FIG. 5. […] Upon dilution with fasted simulated intestinal fluid (faSSIF, pH 6.0 after dilution) the concentration of the amorphous material was seen to drop before increasing over the next 10 minutes and reaching a plateau. No precipitation of the amorphous material was observed, and it maintained at 5× higher concentration than the crystalline hydrate form of AMG 397 for the duration of the experiment. […] Unlike the amorphous material no further dissolution occurred once the media was switched to faSSIF."}, "[4]": {"experiment": "Chemical stability of amorphous solid dispersions (HPLC: LCAP, total impurities) through processing and on storage", "type": "physicochemical", "settings": "all storage conditions", "description": "The chemical and physical stability of AMG 397 50% drug load ASDs generated by spray drying from THF was monitored over 4 weeks under accelerated conditions. Chemical stability was measured by HPLC and physical stability by XRPD, DSC and TGA. Samples were stored at 40° C./75% RH open, 40° C./75% RH closed, 25° C./60% RH closed, and 5° C. closed. All samples were tested after storage for 4 weeks except for the 40° C./75% RH open condition that was also tested at weeks 1 and 2. The THF ASD samples had significant degradation at TO due to the use of THF as the spray solvent. […] Unlike the amorphous DS, the ASD samples were stable when stored at 5° C. for 4-weeks.\nTwo further amorphous solid dispersions (ASD) were therefore prepared by spray-drying using DCM as the solvent in place of THF. Soluplus was used to prepare both these dispersions due to its improved stability over HPMC-AS ASDs generated from THF. Two drug loads were investigated, 25% and 50%.\nThe chemical stability of AMG 397 Soluplus ASDs generated by spray drying using DCM was monitored during each processing step to ensure that no degradation occurred during spray-drying or secondary drying. Samples were also stored for 4 weeks under the following conditions: 5° C. closed, 25° C. closed, 25°,C/60% RH closed, 25° C./60% RH open, 40° C./75% RH open and 40° C./75% RH closed. […]"}, "[5]": {"settings": "Phase 2, famotidine pre-treatment (stomach pH ~6.5)"}, "[6]": {"settings": "Phase 3, pentagastrin pre-treatment (stomach pH ~2.0)"}, "[7]": {"settings": "Phase 4, pentagastrin pre-treatment + P-gp inhibitor GF120918"}},
  "data": [
    {"compound": "CO[C@]1(CN2CCN3CCCC[C@@H]3C2)/C=C/C[C@H](C)[C@@H](C)S(=O)(=O)NC(=O)c2ccc3c(c2)N(C[C@@H]2CC[C@H]21)C[C@@]1(CCCc2cc(Cl)ccc21)CO3", "note": "[AMG 397 Amorphous]", "values": [
      {"measurement": "AUCt", "setting": "[1]; Phase 1, no pre-treatment", "value": 17.3, "unit": "µM·h"},
      {"measurement": "Cl/F", "setting": "[1]; Phase 1, no pre-treatment", "value": 6.7, "unit": "mL/min/kg"},
      {"measurement": "Cmax", "setting": "[1]; Phase 1, no pre-treatment", "value": 790, "unit": "nM"},
      {"measurement": "Tmax", "setting": "[1]; Phase 1, no pre-treatment", "value": 3.1, "unit": "h"},
      {"measurement": "T½", "setting": "[1]; Phase 1, no pre-treatment", "value": 18.4, "unit": "h"},
      {"measurement": "AUCt", "setting": "[1]; [5]", "value": 21.1, "unit": "µM·h"},
      {"measurement": "Cl/F", "setting": "[1]; [5]", "value": 3.67, "unit": "mL/min/kg"},
      {"measurement": "Cmax", "setting": "[1]; [5]", "value": 900, "unit": "nM"},
      {"measurement": "Tmax", "setting": "[1]; [5]", "value": 8.1, "unit": "h"},
      {"measurement": "T½", "setting": "[1]; [5]", "value": 19.7, "unit": "h"},
      {"measurement": "AUCt", "setting": "[1]; [6]", "value": 18, "unit": "µM·h"},
      {"measurement": "Cl/F", "setting": "[1]; [6]", "value": 4.33, "unit": "mL/min/kg"},
      {"measurement": "Cmax", "setting": "[1]; [6]", "value": 780, "unit": "nM"},
      {"measurement": "Tmax", "setting": "[1]; [6]", "value": 10.4, "unit": "h"},
      {"measurement": "T½", "setting": "[1]; [6]", "value": 18.3, "unit": "h"},
      {"measurement": "AUCt", "setting": "[1]; [7]", "value": 26.0, "unit": "µM·h"},
      {"measurement": "Cl/F", "setting": "[1]; [7]", "value": 4.33, "unit": "mL/min/kg"},
      {"measurement": "Cmax", "setting": "[1]; [7]", "value": 950, "unit": "nM"},
      {"measurement": "Tmax", "setting": "[1]; [7]", "value": 12.4, "unit": "h"},
      {"measurement": "T½", "setting": "[1]; [7]", "value": 16.5, "unit": "h"},
      {"measurement": "Effect of stomach pH on exposure", "setting": "[1]; beagle dogs", "value": "not affected by stomach pH"},
      {"measurement": "Bioavailability relative to the crystalline hydrate form", "setting": "[1]; stomach pH elevated, beagle dogs", "value": 3.4, "unit": "fold"},
      {"measurement": "Bioavailability relative to the crystalline hydrate form", "setting": "[1]; stomach pH low, beagle dogs", "value": 1.6, "unit": "fold"},
      {"measurement": "Moisture sorption weight gain", "setting": "[2]", "value": "~6.4", "unit": "%"},
      {"measurement": "Concentration relative to the crystalline hydrate form", "setting": "[3]; after dilution with faSSIF (pH 6.0), maintained for the duration of the experiment", "value": 5, "unit": "×"},
      {"measurement": "Concentration relative to the crystalline hydrate form", "setting": "[3]; simulated gastric fluid (faSSGF), after 20 minutes", "value": "~8", "unit": "×"},
      {"measurement": "Change of total impurities at 4-weeks", "setting": "[4]", "value": "Increases in total impurities"}
    ]}
  ]
}
